Measurements: patent US20080025946A1, “INTERLEUKIN 21 AND TYROSINE KINASE INHIBITOR COMBINATION THERAPY” (priority 2006, published 2008)
Like-named read-outs stand apart in the source and are kept apart here.

How the values were obtained:
[1] = system: murine model of renal adenocarcinoma (RenCa); conditions: cited from earlier work
RenCa.2 tumors = assay: Concurrent mIL-21 and high dose sorafenib: survival of mice bearing RenCa.2 tumors; type: in vivo, mouse; conditions: BALB/c mice, s.c. RenCa; from day 5: 50 μg mIL-21 i.p. 5/9/5 and/or 60 mg/kg sorafenib oral gavage 10 days; n=10/group
Description: Survival of mice receiving the treatments were monitored over 35 days.
Survival of mice were monitored over 35 days.
Ten-week old female BALB/c mice (Charles River Laboratories) were injected s.c. on the right flank with 0.1×10^6 RenCa cells on Day 0. […] Tumor growth was monitored 3×/week for 3 weeks using caliper measurements. Survival of mice were monitored over 35 days. Tumor bearing mice were terminated as per IACUC policies with regard to maximal tumor size (1200 mm^3) or weight loss of >=20% of initial body weight.

[2] = system: RenCa.2 mouse renal cell carcinoma model; conditions: RenCa.2 model
RenCa.2 tumor = assay: Concurrent mIL-21 and sub-maximal sorafenib: RenCa.2 tumor growth in mice; type: in vivo, mouse
Description: Tumor volume was monitored 3×/week for 3 weeks.
Ten-week old female BALB/c mice (Charles River Laboratories) were injected s.c. on the right flank with 0.1×10^6 RenCa.2 cells on Day 0. […] Tumor growth was monitored 3×/week for 3 weeks using caliper measurements. Tumor volume is calculated using the formula ½*(B)2*L (mm3).

SMILES: CNC(=O)c1cc(Oc2ccc(NC(=O)Nc3ccc(Cl)c(C(F)(F)F)c3)cc2)ccn1 [sorafenib]
- inhibition of tumor growth ([1]; 7.5 mg/kg daily): 30%
- inhibition of tumor growth ([1]; 60 mg/kg daily): 84%
- % mice surviving at Day 35 (RenCa.2 tumors): 50%
- doses at which partially effective in mediating tumor clearance [2]: below 10 mg/kg
- inhibition of tumor growth (in words) (RenCa.2 tumor; 25 μg mIL-21 and/or 2 mg/kg sorafenib, RenCa.2 model): partially effective
- Tumor volume mm3 + SD(Day21) (RenCa.2 tumor; BALB/c mice, s.c. RenCa.2, from day 3: 25 μg mIL-21 i.p. 5 days and/or 2 mg/kg sorafenib oral gavage 10 days, Day 21, n=10/group): 790.3 + 398.8 mm3

SMILES: CCN(CC)CCNC(=O)c1c(C)[nH]c(/C=C2\C(=O)Nc3ccc(F)cc32)c1C [sunitinib]
- doses at which maximally effective in mediating tumor clearance ([2]; sunitinib orally administered): above 40 mg/kg
